# Test results reported in article PMC9380258, “Primary and secondary functions of HLA-E are determined by stability and conformation of the peptide-bound complexes” (Cell Reports, 2022).
# Legend:
# [1] = molecular target: HLA-E*01:03 (Homo sapiens, UniProt P13747); assay: SEC-SAXS of peptide-refolded HLA-E*01:03 complexes
# [2] = system: HLA-E; format: binding, human
# [3] = system: HLA-E; format: binding, human; remark: listed apart in the source
sequence,measurement,setting,value
RMAATAVVL [Mtb14 P7V],decrease in the Rg,[1],6.8 Å
same,decrease in the dmax,[1],23 Å
same,increase in thermal stability,[2],3.6 °C
same,increase in the ELISA-based binding signal,[3],36%
